Measured values: US5906920A, “Methods for the detection of ligands for retinoid X receptors” (The Salk Institute for Biological Studies, priority 1995, dated 1999)

System: GST-RXR197-462 interaction with in vitro translated TBP
Test: GST pull-down RXR-TBP interaction assay in vitro
Assay type: binding, human
Details: 1.0 μM 9-cis retinoic acid in all buffers; quantitated by phosphorimaging
From the text: GST-RXR197-462 was constructed by PCR amplification of the appropriate sequences from human RXRα. The amplification products were cloned into EcoRI-BamHI digested pGEX2TK. All PCR-derived constructs were verified by sequencing. The plasmid pGEX-TBP was the kind gift of Dr. I. Verma (Salk Institute; see Kerr et al., in Nature 365:412-419 (1993)). Mammalian expression constructs expressing the ligand biding domains of human RXRα, human RARα and human TRβ have been described elsewhere (Forman et al., Cell 81:541-550 (1995)).
GST-fusion proteins were induced, solubilized and bound to glutathione beads following the manufacturer's procedures (LKB-Pharmacia). After binding to glutathione beads, 15 μl of the suspension was incubated with 1 to 2 μl of the appropriate ^35 S-labeled in vitro translated protein for 1 hour in 500 μl of NETN (20 mM Tris-HC1, pH 7.5, 100 mM KC1, 0.7 mM EDTA, 0.5% NP40, 1 mM PMSF). Following incubation, the beads were washed three times with NETN. […]
Thus GST pull-down experiments were carried out as follows. TBP was in vitro transcribed and translated as described above, and incubated with equal amounts of immobilized GST-RXR197-462 or GST-RXR-E453K/E456K) as determined by coomassie stained gels. […] Little or no interaction between TBP and GST alone is detected under these conditions.

Compound: CC1=C(/C=C/C(C)=C\C=C\C(C)=C\C(=O)O)C(C)(C)CCC1 [9-cis retinoic acid]
- stimulation of the RXR-TBP interaction in vitro by addition of ligand: 3-5 fold
